Measurements reported in PubChem BioAssay (NCI).
Where “and” joins values, the source holds several entries; their conditions need not be identical. Identical values can stand only once.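 Cells were grown in 96-well plates and exposed to each compound for 48 hours at five concentrations; endpoints were interpolated linearly between bracketing concentrations, or set to the highest concentration if not reached. The concentration for 50% growth inhibition is given as GI50. Definition used: TGI = concentration required for complete inhibition of growth.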 *1 amine or outer side, *2 acyl side, *3 side chain or, on linkers, in order; H or OH if unused. Where a SMILES comes first, the peptide text is derived from it. Bridges are numbered along the chain shown (N, C = ends). Roman numbers before positions name the chains, in order. X23 = CCCCCCCCCCCCCCC(=O)NC(CCCCN[*:2])C(=O)CN1CCCC1C(=O)[*:1]

Experiments:
Assay in all cases: DTP human tumour cell line panel, 48 h
[1] = system: OVCAR-5 ovarian
[2] = system: COLO 205 colon
[3] = system: UACC-257 melanoma
[4] = system: A549 NSCLC
[5] = system: HOP-92 NSCLC
[6] = system: RPMI-8226 leukemia
[7] = system: MOLT-4 leukemia
[8] = system: SF-295 CNS
[9] = system: UACC-62 melanoma
[10] = system: LOX IMVI melanoma

SMILES	GI50 [1]	TGI [1] [µM]	GI50 [2] [µM]	TGI [2] [µM]	GI50 [3]	TGI [3] [µM]	GI50 [4]	TGI [4]	GI50 [5]	TGI [5] [µM]	GI50 [6] [µM]	TGI [6]	GI50 [7] [µM]	TGI [7] [µM]	GI50 [8]	TGI [8] [µM]	TGI [9] [µM]	TGI [10] [µM]	GI50 [10] [µM]	GI50 [9]
CCCCCCCCCCCCCCC(=O)NC(CCCCNC(=O)C1CCCN1C(=O)C(CCCCN)NC(=O)C(CCCCN)NC(=O)C(CCCCN)NC(=O)C(CCCNC(=N)N)NC(=O)C(CCCCN)NC(=O)C(N)C(C)C)C(=O)CN1CCCC1C(=O)NCC(=O)NC(Cc1ccccc1)C(=O)N1CCCC1C(=O)NC(CO)C(=O)NC(Cc1ccc(O)cc1)C(=O)NC(CCCCN)C(=O)NC(CC(C)C)C(=O)NC(CCCNC(=N)N)C(=O)N1CCCC1C(=O)NCC(N)=O (configuration not stated) (I: GFPSYKLRPG-NH2 / II: H-VKRKKKP; linker I:N-II:C via X23; configuration not given here)	29.7 µM	74.9	2.66	15.6	14 µM	53.8	19.2 µM	43.1 µM	27 µM	65.1	11	30 µM	18.7	44	18.1 µM	59.3				
O=C1/C(=C/c2ccc3c(c2)OCO3)Sc2scc(-c3ccc(O)c(O)c3)[n+]21		30.6		> 19.7		9.35		46.3 µM		7.58		4.42 µM		> 20.1		25.5	8.28			
O=CNNC(=O)CSc1nc2ccc(I)cc2c(=O)n1Cc1ccccc1		> 100		36.4		68.3		> 100 µM		63.3		23.8 µM		> 100		> 100	47.6	69.1		
CC(=O)C1=C(C)N(c2ccc(C)cc2)C2(O)C=CC(=O)C3=C(O)c4ccccc4C(=O)C312 (configuration not stated)		56.2		> 100		27.1		> 100 µM		> 100		> 100 µM		> 100		43.3	27.4	> 100		
COc1cccc2c1C(=O)c1c(O)c3c(c(O)c1C2=O)C[C@@](O)(C(C)=O)C[C@@H]3OC1CC(N(C)C)C(O)C(C)O1 (some centres not stated)	0.0266 µM and 0.0147 µM		0.0133		0.0435 µM and < 0.0185 µM		0.0816 µM and 0.035 µM	0.423 µM and 1.65 µM	0.00454 µM and < 0.0147 µM		< 0.0159	0.23 µM and 1.92 µM	0.00495		0.0188 µM and 0.0254 µM				0.00387	0.0372 µM and < 0.0115 µM
COC1=CCC2=C(CCN(C(=O)C3CC3)C2Cc2ccc(OC)c(O)c2)C1 (configuration not stated)		> 100		> 100		> 100		> 100 µM		96.9		> 100 µM		> 100		> 100	> 100	> 100		
Nc1nccc2c1ncn2C1C=C(CO)C(O)C1O (configuration not stated)		> 54.1	7.35	> 1000	3.28 µM	> 1000	> 1000 µM	> 1000 µM	> 1000 µM	> 1000	243	> 1000 µM	0.768	> 1000			> 1000	> 1000	335	6.88 µM
O=C1CSc2sc(=S)sc2S1		> 100		> 100		> 100		> 100 µM		> 100		> 100 µM		> 100		> 100	> 100	> 100		
O=C1NC2(NC(=O)C1=O)Nc1ccccc1S2		> 100		> 54.9		> 100		> 100 µM		> 100		57.9 µM		> 92.5		> 100	63.8	37.8		
Cc1cc(O)c2cc3c(O)c(O)ccc3cc2c1		13.5		1.46		13.5		> 26.3 µM		> 22.8		> 100 µM		5.75		10.8	22.6	> 42.3		
O=[P+](O)c1cccs1				> 100				> 100 µM		> 100		> 100 µM		> 100		> 100	> 100	> 100		
O=NN(CCCl)C(=O)Nc1ccc(Cl)c(Cl)c1		> 100		> 100		> 100		> 100 µM		97.8		> 100 µM		> 100		> 100	> 100	> 100		
CC1C(O)[C@@]2(OC[C@@]34C(=O)CC5(O)[C@H](CCC6Cc7nc8c(nc7C[C@]65C)CC5CC[C@@H]6C7=C[C@H]9O[C@@]%10(O[C@@](C)(CO)C[C@@H]%10O)C(C)[C@@]9(O)[C@]7(C)[C@@H](O)CC6[C@]5(C)C8)C3=CC[C@H]4C2C)OC1(C)C (some centres not stated)		0.0795		0.361		0.0212		0.494 µM		3.25		< 0.000355 µM		< 0.000355		< 0.000355	0.00489	0.864		
Cc1ccc([S+](c2ccccc2)c2cc(C)ccc2C)cc1 (configuration not stated)				61.2		> 100		> 100 µM				> 100 µM		> 100		69.1	> 100	> 100		
CC(=O)OCC1OC(N2C(=O)CC(N)=Nc3ccccc32)C(OC(C)=O)C(OC(C)=O)C1OC(C)=O (configuration not stated)		> 100		29.7		> 100		> 100 µM		> 100		49.8 µM		57.3		> 100	> 100	> 100		
CN(CCNC(=O)c1cn(C)c2c1ccc1cc(Cl)ccc12)CCNC(=O)c1cn(C)c2c1ccc1cc(Cl)ccc12		4.41		2.57		67.4				18.8				11.3			10.8	34		
CCc1cccc(C(C)C)c1NC1=C([n+]2ccc(C)cc2)C(=O)c2ccccc2C1=O		23.2		2.57		4.45		22.5 µM		7.06		2.71 µM		9.43		18.1	4.22	3.39		
Oc1ccc(NCc2cc(O)ccc2O)cc1		35.9		62.3		32		> 100 µM		31.5		44.4 µM		7.81		38.3	29.3	38		
COC[C@@H]1Cc2cc(OC)c3c(c2[C@H](c2ccc(OC)c(OC)c2)[C@H]1COC)OCO3		> 100		> 100		> 100		> 100 µM		> 100				> 100		> 100	> 100	> 100		
C[As](C)SCC(NC(=O)CCC(N)C(=O)O)C(=O)NCC(=O)O.Cl.c1ccncc1 (configuration not stated)		6.89		> 100		2.46		5.64 µM		0.763		1.56 µM				12.7	1.13	1.02		
O=CN(O)CC(=O)O.[Ni]		> 100		> 100		> 100				> 100		> 100 µM		> 100		> 100	> 100	> 100		
CC(C)(C)OC(=O)N1CCCC1C(=O)NCCNc1ccc(NCCNC(=O)C2CCCN2C(=O)OC(C)(C)C)c2c1C(=O)c1ccccc1C2=O (configuration not stated)		30.6		27.5		29.6		33.9 µM		30.1		0.0538 µM		> 100		32	23.8	26.3		
Cc1ccc(NC(=O)CC(=O)n2nc(-c3ccccc3)c(N=Nc3ccccc3C(=O)O)c2-c2ccccc2)cc1		> 100		> 100				> 100 µM		> 100		> 100 µM		> 100		> 100	> 100	> 100		
NS(=O)(=O)c1ccc(N=Nc2ccc(O)c(O)c2)cc1		> 100		40.3		66.6		48.7 µM		69.3		39.7 µM		> 100		> 100		36		
OCCSCc1cc(Cl)cc(Cl)c1O		> 100		> 100		> 100		> 100 µM		> 100		> 100 µM		> 100		> 100	> 100	> 100		
